Measurements from patent publication US20030004131A1, “OENOTHEIN MEDICAMENTS” (priority 1999, published 2003).

Assays:
[1] = tested on: hen's-egg chorioallantoic membrane (CAM); assay: hen's-egg chorioallantoic membrane (CAM) irritation model with 15% lactic acid as standard irritant; assay type: in vivo; conditions: CAM treated with 15% lactic acid; sample applied before the irritant (prophylactic use); oenothein-B tested at 1% (weight to volume) dilution
Protocol: In the hen's-egg chorioallantoic membrane (CAM) model, in which the CAM is treated with 15% lactic acid as a standard irritant, the development of manifestations of membrane irritation were tracked and scored according to published methods for assessing irritancy (Luepke and Kemper, 1986, Food and Chemical Toxicology 24:495; Spielmann et al. 1997, Food and Chemical Toxicology 35:39). A sample of the oenothein-B extract from Canadian Willowherb described in Example 1 was tested at a 1% (weight to volume) dilution for activity in the CAM model.

[2] = xanthine oxidase/acetaldehyde spectrophotometric superoxide radical scavenging method; assay type: biochemical
Protocol: The scavenging of free superoxide radicals is quantitated spectrometrically and expressed in terms of percentage of radicals scavenged. Assays were performed with 1% (w/v) and 0.1% (w/v) dilutions of the dried extract, which yielded up to 100% scavenging activity and up to 99% scavenging activity respectively.

Substance: oenothein-B
- decrease in irritation [1]: up to 70%
- scavenging activity (percentage of radicals scavenged) ([2]; 0.1% (w/v) dilution of the dried extract): up to 99%
- scavenging activity (percentage of radicals scavenged) ([2]; 1% (w/v) dilution of the dried extract): up to 100%
